Test results reported in patent US7619008B2, “Xylitol for treatment of vaginal infections” (Kimberly-Clark Worldwide, Inc., priority 2004, dated 2009).

Key:
[1] = pH and gelation properties of acid-modified KELCOGEL/xylitol solutions (Example 5); format: physicochemical; conditions: 4.4% (wt/vol) xylitol in 0.7% KELCOGEL solutions
Experimental: Solutions were formed from xylitol and a gellan gum obtained from CP Kelco U.S., Inc. of Chicago, Ill. under the name KELCOGEL®. The solutions contained 0.7% (wt/vol) of the KELCOGEL® gum and 4.4% (wt/vol) xylitol, and were formed by dissolving 0.07 grams of the polymer powder and 0.44 grams of xylitol into 10 milliliters of water at a temperature between 70° C. to 80° C. After vortexing the solutions to help dissolve the solids, they were allowed to cool to room temperature. After cooling, the pH of the solutions was adjusted using varying amounts of either acetic acid or lactic acid.

Gardnerella vaginalis [2] = experiment: Plate count after 6 hours treatment (Example 3); format: cell-based; conditions: for Plate Count, G. Vaginalis: 6 hours at 37° C., n = 4
Experimental: (§1) Test compounds were dissolved in culture media to form a suspension. Control or xylitol solutions (0.9 milliliters) were filtered and added into culture tubes. To these solutions, 0.1 milliliter of the Gardnerella vaginalis or Lactobacillus acidophilus suspension was then added at a concentration of around 10^6 cfu/milliliter. The culture tubes were incubated at 37° C. for 6 hours. The samples in the culture tubes were then diluted at 1, 10 and 100 times, and 100 microliters of each dilution was plated onto agar plates with WASP (Whitely Automatic Spiral Plate) spiral plating equipment from Don Whitely Scientific Limited, USA. The plates were incubated overnight at 35° C., and the numbers of colonies were counted on each plate by either ProtoCol® from Synbiosis, Frederick, Md., USA Whitely Scientific Limited, USA or by hand count. The results are shown below in Tables 2-3 and in FIG. 2,

[3] = test system: Lactobacillus acidophilus; experiment: Plate count after 6 hours treatment (Example 3); format: cell-based; conditions: for Plate Count, L. acidophilus: 6 hours at 37° C., n = 4
Experimental: as §1

Trichomonas vaginalis = experiment: Viable cell count under microscope (Example 10); format: cell-based; conditions: for Trichomonas vaginalis cell count in comparison to the control group: xylitol 0.5%, 3.0%, 5.0%
Experimental: Trichomonas vaginalis was obtained from the American Type Culture Collection (ATCC #30001). The culture medium was LYI-S-2 medium (ATCC medium 2154). A sterile LYI-S-2 medium was prepared according to the manufacturer's instructions, and the pH of this medium was adjusted to pH 6.0 using 1 N HCl. Xylitol was then dissolved into the LYI-S-2 medium at concentrations of 0.5%, 3.0%, and 5.0% (wtvol). 0.9 milliliters of xylitol and culture medium (as control) were also added into different culture tubes. Thereafter, 0.1 milliliter of Trichomonas vaginalis culture suspension (concentration of 1×10^6/milliliter) was added to each of the culture tubes, and then incubated at 35° C. on a 15 degree horizontal slant. The viable Trichomonas vaginalis cells in each tube were counted under a microscope after 24 and 48 hours. The above procedure was repeated four times for each concentration of xylitol and the control.

Candida albicans = experiment: Viable cell count after 24 hours (Example 12); format: cell-based; conditions: xylitol 1%, 2%, 3%, 4%, 5.0% (wt/vol) in YM medium pH 6.0, after 24 hours (FIG. 11)
Experimental: A YM culture medium was prepared according to the manufacturer's instructions, and the pH of this medium was adjusted to pH 6.0 using 1N HCl. Xylitol was then dissolved into the YM medium at concentrations of 1%, 2%, 3%, 4%, and 5.0% (wt/vol). 0.9 milliliters of the culture medium were also added into a different culture tube as a control. Thereafter, 0.1 milliliter of Candida albicans culture suspension (concentration of 1×10^6/milliliter) was added to each of the culture tubes, and then incubated at 37° C. The viable Candida albicans cells in each tube were counted under a microscope after 24 hours. The above procedure was repeated four times for each concentration and the control.

Gardnerella vaginalis [4] = experiment: Average plate count after 24 hours with gel compositions and solutions (Example 8); format: cell-based; conditions: 1 ml sample + 0.8 ml growth medium + 0.2 ml suspension, 24 hours at 37° C., triplicate, compositions per Table 8
Experimental: Samples 1-2 were prepared by dissolving the KELCOGEL® (0.07 grams) and/or xylitol (0.44 grams) into 10 milliliters of water heated to between 70° C. to 80° C. Samples 3-4 and 6 were formed by first autoclaving a gallic acid stock solution (0.75 grams of gallic acid/20 mL water), autoclaving, and then adding 200 microliters of sterile gallic acid (0.0075 grams) to each sterile solution. Sample 5 was formed by dissolving 0.44 grams of xylitol in deionized water, followed by autoclaving. Sample 7 was formed by dissolving 0.44 grams of xylitol in sterilized growth medium for Gardnerella vaginalis and then filtering. The amount of xylitol was selected to yield isotonic solutions. After vortexing the solutions to help dissolve the solids, they were allowed to cool to room temperature.
Upon formation, 1 milliliter of each control or sample solution was then added into a culture tube, followed by the addition of 0.8 milliliters of growth medium for Gardnerella vaginalis. To this mixture was added 0.2 milliliters of a Gardnerella vaginalis suspension (at a concentration of around 10^6 cfu/ml; diluted from 10^8 cfu/ml stock). The tubes were incubated in culture tubes at 37° C. After 24 and 48 hours, the optical density was measured for each sample at wavelengths of 450 and 595 nanometers. The 24-hr solution samples were then diluted at 0.001× and 0.0001×. 3 milliliters of growth medium were then added into the 24-hour composition samples, followed by 1 hour of shaking at 30° C. Solution was then taken from well-shaken test tubes and diluted at 0.001× and 0.0001×. “WASP” (Whitely Automatic Spiral Plate) spiral plating equipment from Don Whitely Scientific Limited was used to plate 100 microliters of the above solutions onto agar plates. The plates were incubated overnight at 35° C. The number of colonies on each plate was counted using ProtoCol® software from Synbiosis of Frederick, Md. All samples were plated in triplicate.

Gardnerella vaginalis [5] = experiment: Optical density after 24 hours (Example 13); format: cell-based; conditions: 1.0% (wt/vol) in growth medium pH 6.0, after 24 hours (FIG. 12)
Experimental: A growth medium for Gardnerella vaginalis was prepared according to the manufacturer's instructions, and the pH of this medium was adjusted to pH 6.0 using 1N HCl. D-ribose (99%, Calbiochem), D-arabinose (98%, Alfa Aesar), D-xylose (Aldrich), D-lyxose (99%, Avovado), D-arabitol (97%, Alfa Aesar), adonitol (99%, Alfa Aesar), xylitol (99%, Alfa Aesar), xylitol (98%, Danisco), and xylitol (98%, Aldrich) were then dissolved into the growth medium at a concentration of 1.0% (wt/vol). 0.9 milliliters of the culture medium was also added into a different culture tube as a control. Thereafter, 0.1 milliliter of Garnerella vaginalis culture suspension (concentration of 1×10^6/milliliter) was added to each of the culture tubes, and then incubated overnight at 37° C., and the optical density was then measured after 24 hours at a wavelength of 595 nanometers. This was accomplished by pipetting 100 microliters of the control or sample solutions into 96-well microplates, and then using a ThermoMax Microplate Reader from Molecular Devices of Sunnyvale, Calif. to obtain the optical density readings. The results are depicted in FIG. 12.

Gardnerella vaginalis [6] = experiment: Optical density of culture tubes (Example 2); format: cell-based; conditions: 2, 4, 6 and 24 hours at 37° C., n=4
Experimental: (§2) Test compounds were dissolved in culture media to form a suspension. Control or xylitol solutions (0.9 milliliters) were filtered and added into culture tubes, and to this was added 0.1 milliliter of either the Gardnerella vaginalis or Lactobacillus acidophilus suspension at a concentration of around 10^6 cfu/milliliter. The culture tubes were then incubated overnight at 37° C., whereafter the optical density was measured at 2, 4, 6 and 24 hours by pipetting 100 microliters of the control or sample solutions into 96-well microplates, and then using a ThermoMax Microplate Reader (Molecular Devices of Sunnyvale, Calif.) to obtain the optical density readings at 590 or 600 nm wavelengths. […] The inhibition effect remained evident throughout the 24-hour experimental period.

[7] = test system: Lactobacillus acidophilus; experiment: Optical density of culture tubes (Example 2); format: cell-based; conditions: 2, 4, 6 and 24 hours at 37° C., n=4
Experimental: as §2

[8] = test system: Lactobacillus acidophilus; experiment: Zone of inhibition on agar plates (Examples 1 and 4); format: cell-based; conditions: 10%, tested as in Example 1
Experimental: Lactobacillus acidophilus was obtained from the American Type Culture Collection (ATCC #4356). The culture medium was Lactobacilli MRS broth (ATCC medium 416).
(§3) A microorganism culture of 10^5cfu (colony forming units)/ml in a 1× phosphate buffered saline (PBS) solution (diluted from 10× PBS LIQUID CONCENTRATE from VWR Cat. No. EM-6507] was used. One milliliter of the solution was plated on proper agar plates, depending on which microorganism was being tested. The agar plates were incubated at 35° C. for 4 hours. Three 4-millimeter diameter wells were then punched in each agar plate. A test sample of 100 microliters of 5% xylitol in sterilized 2-N-morpholino ethane sulfonic buffer (0.1 M 2-[morpholino]-ethanesulfonic acid, 0.9% NaCl, pH 4.7, prepared from BupH™ MES Buffer Saline Pack from Cat. No. 28390, Pierce Biotechnology, Inc., Rockford, Ill.) was added to one well of each plate. Into each of the other two wells were added MES buffer and 1% benzyl quats (diluted from BARDAC® 205M, from Lonza Inc., Fair Lawn, N.J.) as negative and positive controls, respectively. The plates were incubated overnight at 35° C.
The following day, the “zone of inhibition” for each sample was then measured for Gardnerella vaginalis and Lactobacillus acidophilus activity. The “zone of inhibition” is a circular zone formed around the agar plate in which the growth of the microorganism is inhibited. […]

Gardnerella vaginalis [9] = experiment: as above; format: cell-based; conditions: 10%, tested as in Example 1
Experimental: Gardnerella vaginalis was obtained from the American Type Culture Collection (ATCC #14018). The culture medium was Casman's medium base (BD 229010) with 5% rabbit blood (ATCC medium 70).
as §3, with “A test sample of 100 microliters of 5% xylitol in sterilized 2-N-morpholino ethane sulfonic buffer (0.1 M 2-[morpholino]-ethanesulfonic acid, 0.9% NaCl, pH 4.7, prepared from BupH™ MES Buffer Saline Pack from Cat.” left out
The following day, the “zone of inhibition” for each sample was then measured for Gardnerella vaginalis and Lactobacillus acidophilus activity. The “zone of inhibition” is a circular zone formed around the agar plate in which the growth of the microorganism is inhibited. Absent treatment with an effective antimicrobial agent, the bacterial cells would normally produce an opaque lawn of growth. However, when growth is inhibited, a clear zone is observed. […]

## OC[C@@H](O)[C@H](O)[C@@H](O)CO [xylitol, D-xylitol]
[1]
  effect on gelation ability of the polymer: did not appear to negatively impact
Gardnerella vaginalis [2]; 1% xylitol
  Plate Count, G. Vaginalis: *1.24E+05
Gardnerella vaginalis [2]; 2% xylitol
  Plate Count, G. Vaginalis: *1.64E+03
Gardnerella vaginalis [2]; 3% xylitol
  Plate Count, G. Vaginalis: *4.63E+02
Gardnerella vaginalis [2]; 4% xylitol
  Plate Count, G. Vaginalis: *1.03E+02
Gardnerella vaginalis [2]; 5% xylitol
  Plate Count, G. Vaginalis: *1.98E+01
Gardnerella vaginalis [2]; all five concentrations (1-5% xylitol), 6 hours
  inhibition of Gardnerella vaginalis growth compared to the control group: significant inhibition
[3]; 1% and 5% xylitol, 6 hours
  inhibition of the growth of Lactobacillus acidophilus: did not exhibit any significant inhibition
[3]; 1% xylitol
  Plate Count, L. acidophilus: 3.77 ± 0.49 E+05
[3]; 5% xylitol
  Plate Count, L. acidophilus: 3.97 ± 0.36 E+05
Trichomonas vaginalis; 3% xylitol, after 48 hours
  live Trichomonas vaginalis cells: No live
Trichomonas vaginalis; 5% xylitol, after 48 hours
  live Trichomonas vaginalis cells: No live
Trichomonas vaginalis; after 24 hours, pH 6.0, 35° C. (FIG. 8)
  Trichomonas vaginalis cell count in comparison to the control group: significantly reduced
Trichomonas vaginalis; after 48 hours, pH 6.0, 35° C. (FIG. 9)
  Trichomonas vaginalis cell count in comparison to the control group: even more significant inhibitory effect
Candida albicans
  Candida albicans cell count in comparison to the control group: significantly reduced
Gardnerella vaginalis [4]
  Average Plate Count, Gardnerella vaginalis: significant inhibition
Gardnerella vaginalis [4]; listed as Xylitol
  Average Plate Count, Gardnerella vaginalis: 1.56 × 10^4
Gardnerella vaginalis [5]
  Gardnerella vaginalis cell count in comparison to the control group (optical density 595 nanometers): significantly reduced
Gardnerella vaginalis [6]
  inhibition of growth of Gardnerella vaginalis (optical density, FIG. 3): significant inhibition
[7]
  inhibition of growth of Lactobacillus acidophilus (optical density, FIG. 4): did not exhibit any significant inhibition

## O=C(O)c1cc(O)c(O)c(O)c1 [Gallic acid, trihydroxybenzoic acid]
Gardnerella vaginalis [4]
  Average Plate Count, Gardnerella vaginalis: 3.43 × 10^4

## O=C[C@H](O)[C@H](O)[C@H](O)CO [D-ribose]
Gardnerella vaginalis [5]
  Gardnerella vaginalis cell count in comparison to the control group (optical density 595 nanometers): significantly reduced

## OC[C@@H](O)[C@H](O)[C@@H](O)CO [Xylitol in growth media, xylitol]
Gardnerella vaginalis [4]
  Average Plate Count, Gardnerella vaginalis: 2.40 × 10^4

## O=C[C@H](O)[C@@H](O)[C@H](O)[C@H](O)CO [glucose]
[8]
  zone of inhibition, Lactobacillus acidophilus: 0 mm
Gardnerella vaginalis [9]
  zone of inhibition, Gardnerella vaginalis: 0 mm

## OC[C@@H](O)[C@@H](O)[C@H](O)[C@@H](O)CO [sorbitol]
[8]
  zone of inhibition, Lactobacillus acidophilus: 0 mm
Gardnerella vaginalis [9]
  zone of inhibition, Gardnerella vaginalis: 0 mm
